Data on five molecules can be found in PMC11528321 (RSC Medicinal Chemistry, 2024).

“Also recorded” adds a separate entry of the source.

In one experiment the test system is OE33 and FLO-1 cells. The experiment can be described thus: Antiproliferative screening, both OC cell lines together. The format is cell-based, human. The settings on record: for antiproliferative activity (in words): dose range 0.003-30 μM.
In another experiment the target is T1, FLT3 (Homo sapiens, UniProt P36888).
T1 sequence (P36888 564-993 limits assumed): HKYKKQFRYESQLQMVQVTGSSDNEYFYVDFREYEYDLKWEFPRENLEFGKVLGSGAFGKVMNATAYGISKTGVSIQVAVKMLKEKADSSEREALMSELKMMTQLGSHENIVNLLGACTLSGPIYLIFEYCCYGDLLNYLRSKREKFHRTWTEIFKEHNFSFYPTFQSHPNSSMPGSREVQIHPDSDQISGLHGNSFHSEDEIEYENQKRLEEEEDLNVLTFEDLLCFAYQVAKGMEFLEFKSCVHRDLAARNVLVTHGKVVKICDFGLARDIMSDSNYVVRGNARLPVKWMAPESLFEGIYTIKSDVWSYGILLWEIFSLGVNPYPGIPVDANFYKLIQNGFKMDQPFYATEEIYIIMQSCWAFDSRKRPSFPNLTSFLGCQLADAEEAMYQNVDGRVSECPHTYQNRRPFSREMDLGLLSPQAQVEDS
Nature of the experiment: 33PanQinase kinome profiling. The experiment is classed as biochemical. The conditions noted are these: mean, respect to DMSO control.

A further experiment concerns FLO-1 cells. Nature of the experiment: Cell cycle assay. The experiment is classed as cell-based, human. The settings on record: 3 μM, 72 h, vs DMSO control.
The target in the next experiment is T2, AXL (Homo sapiens, UniProt P30530).
T2 sequence (P30530 26-894): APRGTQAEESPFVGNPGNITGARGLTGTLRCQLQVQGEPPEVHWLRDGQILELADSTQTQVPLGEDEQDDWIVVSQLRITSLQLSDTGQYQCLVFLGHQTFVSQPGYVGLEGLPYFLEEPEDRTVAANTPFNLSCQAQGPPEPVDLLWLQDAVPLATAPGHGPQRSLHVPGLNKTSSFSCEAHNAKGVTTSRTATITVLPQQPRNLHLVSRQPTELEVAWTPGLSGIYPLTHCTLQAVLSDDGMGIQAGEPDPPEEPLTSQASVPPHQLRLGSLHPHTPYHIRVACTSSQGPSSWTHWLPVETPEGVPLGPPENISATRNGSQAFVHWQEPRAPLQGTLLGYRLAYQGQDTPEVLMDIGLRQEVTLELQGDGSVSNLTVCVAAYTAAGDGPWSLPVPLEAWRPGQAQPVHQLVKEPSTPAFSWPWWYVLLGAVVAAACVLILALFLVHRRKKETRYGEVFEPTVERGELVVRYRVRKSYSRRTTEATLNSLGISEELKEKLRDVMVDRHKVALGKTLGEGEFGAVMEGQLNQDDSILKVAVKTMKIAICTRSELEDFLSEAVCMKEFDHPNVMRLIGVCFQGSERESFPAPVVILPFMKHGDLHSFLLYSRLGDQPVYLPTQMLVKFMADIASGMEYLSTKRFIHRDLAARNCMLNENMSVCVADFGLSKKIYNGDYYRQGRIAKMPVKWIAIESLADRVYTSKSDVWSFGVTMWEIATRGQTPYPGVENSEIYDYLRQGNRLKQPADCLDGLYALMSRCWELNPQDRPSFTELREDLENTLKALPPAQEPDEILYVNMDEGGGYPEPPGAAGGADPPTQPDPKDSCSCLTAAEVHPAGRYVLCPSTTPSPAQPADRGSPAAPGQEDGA
Nature of the experiment: 33PanQinase kinome profiling. The format is biochemical. The settings on record: 1 μM.

Another experiment deals with RET (Homo sapiens, UniProt P07949). Nature of the experiment: 33PanQinase kinome profiling. The settings on record: mean, respect to DMSO control. The format is biochemical.
Chain of RET (P07949 29-1114): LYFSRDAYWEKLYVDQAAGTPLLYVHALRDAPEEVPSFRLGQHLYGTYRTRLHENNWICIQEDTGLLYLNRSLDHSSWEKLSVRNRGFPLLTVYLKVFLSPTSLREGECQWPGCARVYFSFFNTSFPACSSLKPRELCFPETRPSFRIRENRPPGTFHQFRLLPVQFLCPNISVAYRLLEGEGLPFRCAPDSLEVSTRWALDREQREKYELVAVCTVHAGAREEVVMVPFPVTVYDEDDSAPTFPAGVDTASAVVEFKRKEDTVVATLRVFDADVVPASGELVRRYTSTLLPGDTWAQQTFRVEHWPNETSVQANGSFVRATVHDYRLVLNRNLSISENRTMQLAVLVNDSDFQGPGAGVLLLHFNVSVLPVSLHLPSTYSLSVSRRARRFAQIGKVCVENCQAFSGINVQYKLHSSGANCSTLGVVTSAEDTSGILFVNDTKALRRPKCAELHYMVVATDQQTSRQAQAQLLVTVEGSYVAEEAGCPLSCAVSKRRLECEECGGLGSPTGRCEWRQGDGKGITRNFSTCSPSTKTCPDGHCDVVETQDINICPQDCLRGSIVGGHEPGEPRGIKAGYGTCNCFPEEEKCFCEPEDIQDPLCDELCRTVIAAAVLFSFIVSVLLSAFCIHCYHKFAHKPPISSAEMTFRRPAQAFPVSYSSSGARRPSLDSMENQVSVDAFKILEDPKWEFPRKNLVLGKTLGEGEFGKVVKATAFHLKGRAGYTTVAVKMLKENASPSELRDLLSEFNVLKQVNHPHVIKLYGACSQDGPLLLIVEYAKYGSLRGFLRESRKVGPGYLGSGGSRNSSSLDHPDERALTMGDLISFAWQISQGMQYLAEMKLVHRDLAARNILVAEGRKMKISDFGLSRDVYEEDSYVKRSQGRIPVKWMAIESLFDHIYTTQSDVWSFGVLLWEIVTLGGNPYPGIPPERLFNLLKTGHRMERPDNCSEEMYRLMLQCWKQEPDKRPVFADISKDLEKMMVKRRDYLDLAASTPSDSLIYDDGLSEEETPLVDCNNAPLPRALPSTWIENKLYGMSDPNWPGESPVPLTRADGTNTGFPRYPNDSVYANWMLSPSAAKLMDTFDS
In experiment [1] the target is T3, Nano-Luc-Aurora A (fusion vector) in HEK293 (Homo sapiens, UniProt O14965).
T3 sequence (O14965 1-403): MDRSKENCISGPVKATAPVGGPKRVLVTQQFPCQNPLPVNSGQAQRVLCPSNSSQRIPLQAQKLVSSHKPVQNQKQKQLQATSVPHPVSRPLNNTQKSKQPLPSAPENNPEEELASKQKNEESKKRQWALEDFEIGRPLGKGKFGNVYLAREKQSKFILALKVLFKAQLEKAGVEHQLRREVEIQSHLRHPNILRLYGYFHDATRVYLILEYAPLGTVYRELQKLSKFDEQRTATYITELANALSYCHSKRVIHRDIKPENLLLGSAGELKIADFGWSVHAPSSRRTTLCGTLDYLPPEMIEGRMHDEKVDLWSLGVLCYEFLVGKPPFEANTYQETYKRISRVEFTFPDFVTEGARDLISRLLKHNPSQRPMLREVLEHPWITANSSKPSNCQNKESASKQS
The experiment can be described thus: NanoBRET target engagement assay. The format is cell-based. The settings on record: HEK293, 1 h treatment, 0.001-100 µM.

For the next experiment, the system named is OE33 cells. Nature of the experiment: Cell cycle assay. The experiment is classed as cell-based, human. The settings on record: 3 μM, 72 h, vs DMSO control.
The target in a further experiment is T4, AuroraA (Homo sapiens, UniProt O14965).
T4 sequence (O14965 1-403): T3 sequence (O14965 1-403)
Nature of the experiment: 33PanQinase kinome profiling. The experiment is classed as biochemical. The settings on record: mean, respect to DMSO control.

As for `COC1CCN(C(=O)/C=C/c2nn(CC3CCCC3)c3ncnc(N)c23)CC1` [1A7], the “antiproliferative activity (in words)” value in the experiment on OE33 and FLO-1 cells is “completely inactive”.

Regarding `CNc1ncc2c(/C=C/C(=O)N3CCC4(CC3)OCCO4)nn(Cc3cccc(C)c3)c2n1` [2C4], the “fold increase in antiproliferative potency over 2B10” value with OE33 and FLO-1 cells (compared with 2B10) was determined as 2 fold.

In the case of `CNc1ncc2c(/C=C/C(=O)N3CCC(OC)CC3)nn(Cc3cccc(C(F)(F)F)c3)c2n1` [2D7, (2E)-1-(4-Methoxypiperidin-1-yl)-3-[6-(methylamino)-1-{[3-(trifluoromethyl)phenyl]methyl}-1H-pyrazolo[3,4-d]pyrimidin-3-yl]prop-2-en-1-one], the figures for the “% Inhibition [1uM]” value on FLT3, at RET and on AuroraA were “minimal to no inhibition”, “minimal to no inhibition” and above 50%, respectively. In addition, the “effect on the cell cycle (in words)” value in the experiment with FLO-1 cells is “enrichment of cells in the S and G2/M phases”; with OE33 cells, “rapid arrest of cells in the G2/M phase; also recorded: slight increase in the number of cells in the sub-G1 phase”. The “inhibition of AXL (in words)” value on AXL was “minimal to no inhibition”. Further, in experiment [1], the “AURKA target engagement in cells (in words)” value is on record as “direct dose-dependent binding”.

In the case of `Nc1ncnc2c1c(/C=C/C(=O)O)nn2CC1CCCC1` [compound 10], the “antiproliferative activity (in words)” value in the experiment with OE33 and FLO-1 cells was “lack of activity”.

For `CNc1ncc2c(/C=C/C(=O)O)nn(CC3CCCC3)c2n1` [compound 12], the “antiproliferative activity (in words)” value in the experiment with OE33 and FLO-1 cells was “lack of activity”.
